Measured values reported in article PMC11740379, “Novel Enyne-Modified 1,4-Thiazepines as Epidermal Growth Factor Receptor Inhibitors: Anticancer and Computational Studies” (ACS Omega, 2024).
Like-named read-outs stand apart in the source and are kept apart here.

Assays:
Type in all cases: cell-based, human
[1] = tested on: PC-3 cells; assay: XTT cytotoxicity assay, prostate cancer cells; details: for IC50: read-out: IC50, prostate cancer (PC-3); for Selectivity index (SI), prostate cancer (PC-3): versus normal cells HEK-293
Method: (§1) The cells were cultured in RPMI medium (Sigma) supplemented with 10% heat-inactivated fetal bovine serum, 1% penicillin, and 1% L-glutamine, and incubated in a humidified CO2 atmosphere at 37 °C.
(§2) To evaluate the cytotoxic effects of TZEPs, which were dissolved in dimethyl sulfoxide (DMSO), the XTT assay (2,3-bis(2-methoxy-4-nitro-5-sulfophenyl)-2H-tetrazolium-5-carboxanilide) was employed. […] Following the incubation, 100 μL of XTT was added to each well, and the plates were incubated for an additional 4 h at 37 °C. The resulting color change was measured by recording the absorbance at 570 nm using a microplate reader (Tecan).
(§3) Conversely, an SI less than 1 means the drug is more toxic to normal cells than to target cells, which is undesirable in therapeutic contexts.

[2] = tested on: A549 cells; assay: XTT cytotoxicity assay, lung cancer cells; details: for IC50: read-out: IC50, lung cancer (A549); for Selectivity index (SI), lung cancer (A549): versus normal cells HEK-293
Method: as §1, §2, §3

[3] = tested on: MCF-7 cells; assay: XTT cytotoxicity assay, breast cancer cells; details: for IC50: read-out: IC50, breast cancer (MCF-7); for Selectivity index (SI), breast cancer (MCF-7): versus normal cells HEK-293
Method: as §1, §2, §3

[4] = tested on: HEK-293 cells; assay: XTT cytotoxicity assay, non-tumorigenic cells; details: XTT assay, exposure time of the IC50 not stated (24, 48, 72 h tested)
Method: Human cell lines for breast cancer (MCF-7), lung cancer (A549), prostate cancer (PC-3), and nontumorigenic HEK-293 were sourced from the Health Protection Agency (U.K.) and the Interlab Cell Line Collection (Italy). The cells were cultured in RPMI medium (Sigma) supplemented with 10% heat-inactivated fetal bovine serum, 1% penicillin, and 1% L-glutamine, and incubated in a humidified CO2 atmosphere at 37 °C.
To evaluate the cytotoxic effects of TZEPs, which were dissolved in dimethyl sulfoxide (DMSO), the XTT assay (2,3-bis(2-methoxy-4-nitro-5-sulfophenyl)-2H-tetrazolium-5-carboxanilide) was employed. Cells were plated in 96-well plates at a density of 10^4 cells per well and exposed to varying concentrations of TZEPs (ranging from 1 to 250 μM) for 24, 48, and 72 h. Following the incubation, 100 μL of XTT was added to each well, and the plates were incubated for an additional 4 h at 37 °C. The resulting color change was measured by recording the absorbance at 570 nm using a microplate reader (Tecan).
The IC50 values, which indicate the concentration of the compound required to inhibit 50% of cancer cell proliferation, were determined using Biosoft CalcuSyn 2.1 software. […] Conversely, an SI less than 1 means the drug is more toxic to normal cells than to target cells, which is undesirable in therapeutic contexts. In the literature, a selectivity index of 2 or higher is generally considered significant, implying that the compound selectively targets diseased cells with relatively low toxicity to healthy cells.[15]

[5] = tested on: A549 cells; assay: Annexin V-FITC/PI apoptosis detection by flow cytometry; details: A549, IC50 concentration, 72 h
Description: (§4) Annexin V, a protein with a high affinity for phosphatidylserine (PS), is pivotal in detecting apoptosis. Normally, PS is located in the inner leaflet of the plasma membrane, but during apoptosis, it moves to the outer leaflet, making it a key marker for apoptotic cells.[16] Annexin V binds specifically to PS on the surface of these cells. A secondary dye like propidium iodide (PI) is used to distinguish apoptotic cells from viable ones with intact membranes. We can identify and quantify viable cells (annexin V–, PI–) and apoptotic cells (annexin V+, PI+) by analyzing fluorescence patterns. Here, we employed the FITC Annexin V Apoptosis Detection Kit I from BD Pharmingen. Cells were seeded at a density of 10^6 cells per well in a 6-well plate and exposed to IC50 concentration of TZEP7 for 72 h. Following treatment, cells were rinsed with cold PBS, resuspended in 1 mL of 1× Binding Buffer, and stained with 5 μL of Annexin V FITC and 5 μL of PI. After vortexing, the samples were incubated at room temperature (25 °C) for 15 min in the dark. Postincubation, 400 μL of 1× Binding Buffer was added to each sample, and apoptosis was measured using a BD Accuri C6 Flow Cytometer. Cisplatin was used as an apoptosis-inducing reference drug.

[6] = tested on: MCF-7 cells; assay: as above; details: MCF-7, IC50 concentration, 72 h
Description: as §4

[7] = tested on: PC-3 cells; assay: as above; details: PC-3, IC50 concentration, 72 h
Description: as §4

[8] = Homo sapiens, PC-3, XTT assay, exposure time of the IC50 not stated (24, 48, 72 h tested)
[9] = Homo sapiens, A549, XTT assay, exposure time of the IC50 not stated (24, 48, 72 h tested)
[10] = Homo sapiens, MCF7, XTT assay, exposure time of the IC50 not stated (24, 48, 72 h tested)
[11] = XTT assay, exposure time of the IC50 not stated (24, 48, 72 h tested)

| Structure (SMILES) | IC50 [1, 8] [µM] | Selectivity index (SI), prostate cancer (PC-3) [1] | IC50 [2, 9] [µM] | Selectivity index (SI), lung cancer (A549) [2] | IC50 [3, 10] [µM] | Selectivity index (SI), breast cancer (MCF-7) [3] | IC50 ([4]; Homo sapiens, HEK293) [µM] | IC50 [1, 11] [µM] | IC50 [2, 11] [µM] | cells in early apoptosis [5] [%] | cells in late apoptosis [5] [%] | cells in early apoptosis [6] [%] | cells in late apoptosis [6] [%] | cells in early apoptosis [7] [%] | cells in late apoptosis [7] [%] | IC50 [3, 11] [µM] | IC50 [4] [µM] | IC50 ([1]; Homo sapiens, PC-3, 72 h) [µM] | IC50 ([2]; Homo sapiens, A549, 72 h) [µM] | IC50 ([3]; Homo sapiens, MCF7, 72 h) [µM] |
| --- | --- | --- | --- | --- | --- | --- | --- | --- | --- | --- | --- | --- | --- | --- | --- | --- | --- | --- | --- | --- |
| C(#Cc1ccccc1)/C=C1/CN=C(c2ccccc2)C=C(c2ccccc2)S1 [TZEP1] | 12.4 ± 3.2 | 2.37 | 38.7 ± 3.2 | 0.76 | 69.4 ± 1.2 | 0.42 | 29.5 ± 0.8 | – | – | – | – | – | – | – | – | – | – | – | – | – |
| Fc1cccc(C2=NC/C(=C/C#Cc3ccccc3)SC(c3ccccc3)=C2)c1 [TZEP2] | 57.7 ± 1.4 | 0.79 | 61.4 ± 1.6 | 0.74 | 66.4 ± 1.8 | 0.68 | 45.7 ± 2.7 | – | – | – | – | – | – | – | – | – | – | – | – | – |
| Brc1ccc(C2=NC/C(=C/C#Cc3ccccc3)SC(c3ccccc3)=C2)cc1 [TZEP3] | 71.2 ± 0.9 | 0.49 | 60.3 ± 0.8 | 0.58 | 13.3 ± 1 | 2.66 | 35.5 ± 1.3 | – | – | – | – | – | – | – | – | – | – | – | – | – |
| Clc1ccc(C2=CC(c3ccccc3)=NC/C(=C/C#Cc3ccccc3)S2)cc1 [TZEP4] | 73.5 ± 2.2 | 0.64 | 71.1 ± 2.6 | 0.66 | 81.2 ± 4.4 | 0.58 | 47.3 ± 0.7 | – | – | – | – | – | – | – | – | – | – | – | – | – |
| Brc1ccccc1C1=CC(c2ccccc2)=NC/C(=C/C#Cc2ccccc2)S1 [TZEP5] | 54.9 ± 3.2 | 0.37 | 45.8 ± 0.9 | 0.44 | 22.3 ± 1.8 | 0.91 | 20.4 ± 1.4 | – | – | – | – | – | – | – | – | – | – | – | – | – |
| Clc1ccc(C2=NC/C(=C/C#Cc3ccccc3)SC(c3ccccc3Br)=C2)cc1 [TZEP6] | 12.4 ± 3.6 | 0.87 | 14.2 ± 2.2 | 0.76 | 15.5 ± 2.8 | 0.70 | 10.9 ± 3.4 | – | – | – | – | – | – | – | – | – | – | – | – | – |
| C(#Cc1ccccc1)/C=C1/CN=C(c2ccsc2)C=C(c2ccccc2)S1 [TZEP8] | 95.4 ± 1.2 | 1.03 | 112.8 ± 0.8 | 0.87 | 85.7 ± 2.4 | 1.15 | 99.2 ± 3 | – | – | – | – | – | – | – | – | – | – | – | – | – |
| Cc1ccc(C2=NC/C(=C/C#Cc3ccccc3)SC(c3ccccc3)=C2)cc1 [TZEP9] | 103 ± 2 | 0.96 | 96.6 ± 1.4 | 1.02 | 78.4 ± 1.8 | 1.26 | 98.8 ± 0.7 | – | – | – | – | – | – | – | – | – | – | – | – | – |
| CC(C)(C)c1ccc(C2=NC/C(=C/C#Cc3ccccc3)SC(c3ccccc3)=C2)cc1 [TZEP10] | 73.7 ± 3.2 | 1.20 | 64.4 ± 1.8 | 1.38 | 76.3 ± 0.8 | 1.16 | 89 ± 0.5 | – | – | – | – | – | – | – | – | – | – | – | – | – |
| COc1ccc(C2=NC/C(=C/C#Cc3ccccc3)SC(c3ccccc3)=C2)cc1 [TZEP11] | 81.6 ± 3.4 | 1.37 | 108 ± 2.6 | 1.04 | 98.2 ± 2.8 | 1.14 | 112 ± 3 | – | – | – | – | – | – | – | – | – | – | – | – | – |
| Cc1ccc(C#C/C=C2/CN=C(c3ccccc3)C=C(c3ccccc3)S2)cc1 [TZEP12] | 101 ± 3 | 1.09 | 90.5 ± 0.7 | 1.21 | 92.6 ± 1 | 1.19 | 110 ± 1.2 | – | – | – | – | – | – | – | – | – | – | – | – | – |
| N.N.[Cl][Pt][Cl] [cisplatin, Cisplatin, reference compound] | – | 1.17 | – | 1.11 | – | 1.02 | – | 12.8 ± 2.8 | 13.4 ± 1.4 | 13.4 | 70.8 | 18.7 | 72.2 | 16.2 | 75.4 | 14.7 ± 0.6 | 15 ± 0.7 | – | – | – |
| C#Cc1cccc(Nc2ncnc3cc(OCCOC)c(OCCOC)cc23)c1 [erlotinib, Erlotinib, reference compound] | – | – | – | – | – | – | 12.9 ± 3 | – | – | – | – | – | – | – | – | – | – | 15.5 ± 30.8 | 18.4 ± 0.4 | 13.4 ± 2 |
